Consider 14 compounds from patent US12139486B2, “Octahydro fused azadecalin glucocorticoid receptor modulators” (Corcept Therapeutics, Inc., priority 2013, dated 2024).

Assay [1] deals with T1, human recombinant GR (Homo sapiens, UniProt P04150).
T1 construct: purchased PanVera P2812
T1 sequence (P04150 1-777): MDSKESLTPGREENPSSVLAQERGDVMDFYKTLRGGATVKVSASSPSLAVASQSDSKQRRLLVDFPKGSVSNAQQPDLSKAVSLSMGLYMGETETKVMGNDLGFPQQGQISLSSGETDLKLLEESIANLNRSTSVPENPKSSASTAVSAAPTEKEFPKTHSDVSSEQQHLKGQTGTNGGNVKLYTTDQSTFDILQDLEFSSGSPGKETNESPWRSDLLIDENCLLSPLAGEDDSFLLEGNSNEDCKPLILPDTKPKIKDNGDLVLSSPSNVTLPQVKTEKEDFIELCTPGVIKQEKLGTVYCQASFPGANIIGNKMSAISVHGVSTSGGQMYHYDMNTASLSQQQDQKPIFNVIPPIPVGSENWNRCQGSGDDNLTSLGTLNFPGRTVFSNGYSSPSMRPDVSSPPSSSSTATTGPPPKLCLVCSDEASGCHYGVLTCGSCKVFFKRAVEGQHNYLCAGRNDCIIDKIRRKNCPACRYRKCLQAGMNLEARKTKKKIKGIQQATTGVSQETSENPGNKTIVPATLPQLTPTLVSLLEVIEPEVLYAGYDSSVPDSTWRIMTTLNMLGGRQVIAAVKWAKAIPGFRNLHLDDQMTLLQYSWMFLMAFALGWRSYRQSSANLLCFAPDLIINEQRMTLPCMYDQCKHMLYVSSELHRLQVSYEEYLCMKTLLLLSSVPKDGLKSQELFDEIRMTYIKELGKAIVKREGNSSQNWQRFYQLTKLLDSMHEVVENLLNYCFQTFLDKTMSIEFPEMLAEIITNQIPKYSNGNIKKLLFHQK
Nature of the assay: Human Glucocorticoid Receptor (GR) Fluorescence Polarisation (FP) Binding Assay. Particulars: Ki from IC50 by ligand depletion correction; displacement of Fluorome GS Red. The protocol: The following is a description of a FP assay for measuring compound inhibition of labelled glucocorticoid binding to the human recombinant GR.
The binding affinity of test compounds was determined using a FP binding assay using human recombinant GR (PanVera P2812) and a fluorescent labelled glucocorticoid ligand (Fluorome GS Red) (PanVera P2894). The presence of inhibitors prevents the formation of a GS Red/GR complex resulting in a decrease in the measured polarisation value. The change in polarisation value in the presence of test compounds is used to calculate the binding affinity of the compound for GR.
This assay was performed in 384 well, black, round-bottom, polypropylene micro titre plates in a final volume of 20 μl. The assay contained 5 μl 1 nM GR (final concentration), 5 μl 0.5 nM Fluorome GS Red (final concentration) in the presence of 10p test compounds. Positive control wells (high polarisation) receive, 10 μl 2% (v:v) DMSO vehicle (1% (v/v) final concentration)+5 μl 1 nM GR and 5 μl 0.5 nM Fluorome GS Red. […] Assay blank background wells (used for normalisation) receive 15 μl 1×GS screening buffer+5 μl GR.
For the IC50 determination (concentration of compound that displaces 50% of the bound GS Red), compounds were tested at eight different concentrations in duplicate in two independently performed experiments. Compounds were prepared as solubilised solids at 10 mM in DMSO. On the day of assay, an 8 point half-log serial dilution (55 μl DMSO+25 μl compound solution) was prepared. A 1:50 dilution (1 μl compound solution+49 μl 1×GR screening buffer) was prepared for each compound. The compounds were prepared at 2× final assay concentration.
The plates were mixed and incubated for 4 hour at room temperature. FP was measured using an Envision Excite plate reader with 535 nm excitation and 590 nm emission interference filters.
Milli-polarisation (mP) values were calculated using the below equation: mP=1000*(S−G*P)/(S+G*P) where S and P are assay blank background subtracted fluorescence units, G=G-factor (1.07).
Compound IC50 values were calculated by plotting a [compound] v. % inhibition curve and fitting the data to a 4-parameter logistic fit equation.
10×GR screening buffer (100 mM potassium phosphate pH 7.4, 200 mM Na2MoO4, 1 mM EDTA, 20% (v/v) DMSO). To prepare 1×GR screening buffer, combine 1 ml 10×GR screening buffer (PanVera P2814)+1 ml stabilising peptide (PanVera P2815)+7.95 ml 4° C. MQ water. Add 50p 1M DTT, vortex and place on ice until use.
On the technique in general: Polarisation of emitted light reports the rotation of a fluorescent probe.

The target of assay [2] is T2, glucocorticoid receptor (Homo sapiens, UniProt P04150).
T2 construct: endogenous in cells; host or cells: HepG2
T2 sequence (P04150 1-777): T1 sequence (P04150 1-777)
The experiment in a line: HepG2 Tyrosine Aminotransferase (TAT) Assay. The assay is classed as cell-based. The method, then: Glucocorticoid mediated activation of TAT occurs by transactivation of glucocorticoid response elements in the TAT promoter by glucocorticoid receptor-agonist complex.
HepG2 cells were cultured using MEME media supplemented with 10% (v/v) foetal bovine serum; 2 mM L-glutamine and 1% (v/v) NEAA at 37° C., 5%/95% (v/v) CO2/air.
Compounds were serially half log diluted in 100% (v/v) dimethylsulphoxide from a 10 mM stock.
HepG2 cells were then lysed with 30 μl of cell lysis buffer containing a protease inhibitor cocktail for 15 minutes at 4° C. […] After 2 hours incubation at 37° C. the reaction was terminated by the addition of 15 μl of 10 M aqueous potassium hydroxide solution, and the plates incubated for a further 30 minutes at 37° C.
[compound] and fitting the data to a 4 parameter logistic equation.

As for `CC(C)n1ncc(S(=O)(=O)N2CC[C@H]3Cc4c(cnn4-c4ccc(F)cc4)C[C@]3(C(=O)c3cscn3)C2)n1` [Example 2AJ, ((4aR,8aS)-1-(4-fluorophenyl)-6-((2-isopropyl-2H-1,2,3-triazol-4-yl)sulfonyl)-4,4a,5,6,7,8,8a,9-octahydro-1H-pyrazolo[3,4-g]isoquinolin-4a-yl)(thiazol-4-yl)methanone], the Ki is less than 0.5 nM in assay [1] and less than 20 nM in assay [2].
The corresponding values for `CCCn1cc(S(=O)(=O)N2CC[C@H]3Cc4c(cnn4-c4ccc(F)cc4)C[C@]3(C(=O)c3ccccn3)C2)cn1` [Example 2B, ((4aR,8aS)-1-(4-fluorophenyl)-6-((1-propyl-1H-pyrazol-4-yl)sulfonyl)-4,4a,5,6,7,8,8a,9-octahydro-1H-pyrazolo[3,4-g]isoquinolin-4a-yl)(pyridin-2-yl)methanone] are less than 0.5 nM and less than 20 nM.
For `Cn1ncc(S(=O)(=O)N2CC[C@H]3Cc4c(cnn4-c4ccc(F)cc4)C[C@]3(C(=O)c3cc(C(F)(F)F)ccn3)C2)n1` [Example 2C, ((4aR,8aS)-1-(4-fluorophenyl)-6-((2-methyl-2H-1,2,3-triazol-4-yl)sulfonyl)-4,4a,5,6,7,8,8a,9-octahydro-1H-pyrazolo[3,4-g]isoquinolin-4a-yl)(4-(trifluoromethyl)pyridin-2-yl)methanone], in that order: 0.5 to 1 nM and less than 20 nM.
For `CCCn1cc(S(=O)(=O)N2CC[C@H]3Cc4c(cnn4-c4ccc(F)cc4)C[C@]3(C(=O)c3cc(C(F)(F)F)ccn3)C2)cn1` [Example 2D, ((4aR,8aS)-1-(4-fluorophenyl)-6-((1-propyl-1H-pyrazol-4-yl)sulfonyl)-4,4a,5,6,7,8,8a,9-octahydro-1H-pyrazolo[3,4-g]isoquinolin-4a-yl)(4-(trifluoromethyl)pyridin-2-yl)methanone], in that order: less than 0.5 nM and less than 20 nM.
For `CCCn1cc(S(=O)(=O)N2CC[C@H]3Cc4c(cnn4-c4ccc(F)cc4)C[C@]3(C(=O)c3nccs3)C2)cn1` [Example 2E, ((4aR,8aS)-1-(4-fluorophenyl)-6-((1-propyl-1H-pyrazol-4-yl)sulfonyl)-4,4a,5,6,7,8,8a,9-octahydro-1H-pyrazolo[3,4-g]isoquinolin-4a-yl)(thiazol-2-yl)methanone], the inhibition constant Ki in assay [1] is less than 0.5 nM; in assay [2] it was less than 20 nM.
Take `O=C(c1ccccn1)[C@]12Cc3cnn(-c4ccc(F)cc4)c3C[C@@H]1CCN(S(=O)(=O)c1cccc(F)c1)C2` [Example 2F, ((4aR,8aS)-1-(4-fluorophenyl)-6-((3-fluorophenyl)sulfonyl)-4,4a,5,6,7,8,8a,9-octahydro-1H-pyrazolo[3,4-g]isoquinolin-4a-yl)(pyridin-2-yl)methanone]: the Ki in assay [1] is greater than 1 nM; in assay [2], 20 to 100 nM.
The corresponding values for `O=C(c1ccccn1)[C@]12Cc3cnn(-c4ccc(F)cc4)c3C[C@@H]1CCN(S(=O)(=O)c1cccc(C(F)(F)F)c1)C2` [Example 2G, ((4aR,8aS)-1-(4-fluorophenyl)-6-((3-(trifluoromethyl)phenyl)sulfonyl)-4,4a,5,6,7,8,8a,9-octahydro-1H-pyrazolo[3,4-g]isoquinolin-4a-yl)(pyridin-2-yl)methanone] are greater than 1 nM and 20 to 100 nM.
Consider `Cn1cc(S(=O)(=O)N2CC[C@H]3Cc4c(cnn4-c4ccc(F)cc4)C[C@]3(C(=O)c3cc(C(F)(F)F)ccn3)C2)cn1` [Example 2H, ((4aR,8aS)-1-(4-fluorophenyl)-6-((1-methyl-1H-pyrazol-4-yl)sulfonyl)-4,4a,5,6,7,8,8a,9-octahydro-1H-pyrazolo[3,4-g]isoquinolin-4a-yl)(4-(trifluoromethyl)pyridin-2-yl)methanone], for which the values for the inhibitory constant (Ki) in assay [1] and in assay [2] were greater than 1 nM and 20 to 100 nM, respectively.
Consider `Cn1ccc(S(=O)(=O)N2CC[C@H]3Cc4c(cnn4-c4ccc(F)cc4)C[C@]3(C(=O)c3cc(C(F)(F)F)ccn3)C2)n1` [Example 2I, ((4aR,8aS)-1-(4-fluorophenyl)-6-((1-methyl-1H-pyrazol-3-yl)sulfonyl)-4,4a,5,6,7,8,8a,9-octahydro-1H-pyrazolo[3,4-g]isoquinolin-4a-yl)(4-(trifluoromethyl)pyridin-2-yl)methanone], for which the inhibitory constant (Ki) in assay [1] lay within 0.5 to 1 nM; in assay [2] it was 20 to 100 nM.
As for `Cn1nccc1S(=O)(=O)N1CC[C@H]2Cc3c(cnn3-c3ccc(F)cc3)C[C@]2(C(=O)c2cc(C(F)(F)F)ccn2)C1` [Example 2J, ((4aR,8aS)-1-(4-fluorophenyl)-6-((1-methyl-1H-pyrazol-5-yl)sulfonyl)-4,4a,5,6,7,8,8a,9-octahydro-1H-pyrazolo[3,4-g]isoquinolin-4a-yl)(4-(trifluoromethyl)pyridin-2-yl)methanone], the Ki was greater than 1 nM in assay [1] and 20 to 100 nM in assay [2].
The corresponding values for `CCn1cc(S(=O)(=O)N2CC[C@H]3Cc4c(cnn4-c4ccc(F)cc4)C[C@]3(C(=O)c3cc(C(F)(F)F)ccn3)C2)cn1` [Example 2K, ((4aR,8aS)-6-((1-ethyl-1H-pyrazol-4-yl)sulfonyl)-1-(4-fluorophenyl)-4,4a,5,6,7,8,8a,9-octahydro-1H-pyrazolo[3,4-g]isoquinolin-4a-yl)(4-(trifluoromethyl)pyridin-2-yl)methanone] are 0.5 to 1 nM and 20 to 100 nM.
The corresponding values for `CCn1nccc1S(=O)(=O)N1CC[C@H]2Cc3c(cnn3-c3ccc(F)cc3)C[C@]2(C(=O)c2cc(C(F)(F)F)ccn2)C1` [Example 2L, ((4aR,8aS)-6-((1-ethyl-1H-pyrazol-5-yl)sulfonyl)-1-(4-fluorophenyl)-4,4a,5,6,7,8,8a,9-octahydro-1H-pyrazolo[3,4-g]isoquinolin-4a-yl)(4-(trifluoromethyl)pyridin-2-yl)methanone] are greater than 1 nM and 20 to 100 nM.
Regarding `O=C(c1nccs1)[C@]12Cc3cnn(-c4ccc(F)cc4)c3C[C@@H]1CCN(S(=O)(=O)c1ccc(C(F)(F)F)cc1)C2` [Example 2M, ((4aR,8aS)-1-(4-fluorophenyl)-6-((4-(trifluoromethyl)phenyl)sulfonyl)-4,4a,5,6,7,8,8a,9-octahydro-1H-pyrazolo[3,4-g]isoquinolin-4a-yl)(thiazol-2-yl)methanone], the inhibition constant Ki in assay [1] is greater than 1 nM; in assay [2], 20 to 100 nM.
In the case of `CC(C)n1ncc(S(=O)(=O)N2CC[C@H]3Cc4c(cnn4-c4ccc(F)cc4)C[C@]3(C(=O)c3ccccn3)C2)n1` [Example 2N, ((4aR,8aS)-1-(4-fluorophenyl)-6-((2-isopropyl-2H-1,2,3-triazol-4-yl)sulfonyl)-4,4a,5,6,7,8,8a,9-octahydro-1H-pyrazolo[3,4-g]isoquinolin-4a-yl)(pyridin-2-yl)methanone], the inhibitory constant (Ki) in assay [1] is less than 0.5 nM; in assay [2], less than 20 nM.

As usually defined, the Ki is a dissociation constant, usually derived from enzyme kinetics or from competition with a known ligand.
